The text below walks through data of patent US20080254017A1, “Methods and compositions for treating symptomes of diseases related to imbalance of essential fatty acids” (priority 2006, published 2008).

Read-outs that look alike come from different tables or passages of the source.

Data set [1] relates to subjects with autistic spectrum disorder. Type of data set: in vivo. From the text:
The systemic nature of Autistic Spectrum Disorder (ASD) and the pervasive developmental delay (PDD) that may accompany it has led the inventor of the invention to view the complexity of these presentations by addressing them from a cell membrane perspective. Autistic spectrum disorder is a complex neurodevelopmental disorder, which has been investigated under an open clinical study rather than randomized, placebo, controlled and double blinded studies due to the constellation of symptoms in autistic spectrum disorder and multiple variables in regard to the oral and IV intervention. Each subject served as his or her own control for several reasons, 1) control pediatric subjects are difficult to obtain due to the use of intravenous therapy, 2) compliance in regard to a restricted carbohydrate diet and oral intake of supplements is limited in controls, and 3) matching two subjects with the same diagnosis, gender, age, development, metabolism and presentation is unrealistic in regard to autism and PDD. Presently there are no biological markers that exist to identify autistic spectrum disorder in addition to speculation that multiple, variable susceptibility genes, epigenetic effects, and environmental factors complicate the disorder we term autism.
The case studies represented below present the result of the treatment regimen on 300 subjects studied. Phospholipid re-modeling of these subjects were stimulated by supplying oral or IV phospholipids, principally PC, as well as balanced essential fatty acids and catalysts via nutritional and phamaneutical interventions.
A butterfly catheter with a 23-gauge needle was inserted into a vein of the antecubital region of one of the subjects' arms. A syringe containing the PC (phosphatidylcholine) composition in about 5 to about 10 cc volume was connected to the catheter by a flexible tube. A volume of blood equal to the total volume of the PC composition was drawn into the syringe and the syringe was gently agitated to mix the blood and PC composition. The blood/PC composition mixture was then infused (or “pushed”) as a lipid exchange into the subject over a period of two to three minutes.
A butterfly catheter with a 23-gauge needle was inserted into a vein of the antecubital region of one of the subjects' arms. The PC composition was infused first followed by a pre-prepared syringe containing about 2 mg (0.2 cc) to about 5 mg (0.5 cc) of Leucovorin over the period of 2-3 minutes.
A butterfly catheter with a 23-gauge needle was inserted into a vein of the antecubital region of one of the subjects' arms. The PC and Leucovorin compositions were infused first followed by a pre-prepared syringe containing about 1.5 to 6 cc of glutathione generally pre-mixed with an equal portion of sterile water (not saline). The composition containing glutathione was followed the IV PC with a pre-prepared syringe of glutathione using the same needle. This procedure avoids re-sticking the patient by infusing first the PC, then the Leucovorin and then the glutathione using the same butterfly catheter with a flexible tube infused (or “pushed”) into the subject over a period of two to five minutes.

For data set [2] the following is noted: L-Glutathione capsules, stomach acid; cited from earlier work.
For data set [3] the following is noted: cited from earlier work.
For data set [4] the following is noted: IV bolus doses of 7 grams, 14 grams and 21 grams; cited from earlier work.
Data set [5] concerns mouse model of Bulbar ALS. To be noted: oral administration; cited from earlier work.

Consider `O=C(O)[C@@H](S)[C@@H](S)C(=O)O` [DMSA, meso-2,3-dimercaptosuccinic acid], for which the adverse outcome in data set [1] (Case Study Seven, 13 months of oral dosing by another physician) was “increased left side weakness”.
With `N[C@@H](CCC(=O)N[C@@H](CS)C(=O)NCC(=O)O)C(=O)O` [Glutathione, N—(N-L-gamma-glutamyl-L-cysteinyl) glycine], the “stability when taken orally” value in data set [2] was “very unstable and is destroyed by the stomach acid before it can be absorbed”.
As to Phosphatidylcholine, the clinical response result was “increased awareness/communication” in data set [1] (Case Study Five, 2 grams then 3 grams on consecutive weeks dripped over 3 hours); “dramatic improvement in response to others and the world around them” in data set [1] (Case Study Seven, IV 500 mg two to three times weekly, after 6 weeks); “positive responsive” in data set [1] (Case Study Seven, IV lipid exchange 250 mg followed by 0.3 cc leucovorin and 1200 mg GSH, once weekly); “increased language and awareness” in data set [1] (Case Study Seven, bolus dosing); “improvement in fatigue, stable mood, return of focus, improvement in memory, clearance of orange color on palms/soles, less headaches, improved learning” in data set [1] (Case Study Six, IV 500 mg twice weekly, after 6 weeks); “responsive” in data set [1] (Case Study Six, IV lipid exchange 250 mg once weekly with supplementation and diet). Also, the clinical response entry in data set [1] (Case Study Six, bolus 1.5 grams in D5W dripped over 2 hours followed by glutathione) is “improved cognition, increased circulation, improved eye contact and more demonstrative, loving behavior”. Also, in data set [1] (Case Study Six, bolus 3 grams dripped over 4 hours), the tolerability result is reported as “well tolerated”. Also, in data set [3] (taken orally with meals), the oral absorption result is “up to 90 % per 24 hrs”. Further, the “time over which blood levels peak” value in data set [3] (taken orally) was 8 to 12 h. Moreover, in data set [4], the side effects result is on record as “no side effects were observed”.
Consider `CCCC(=O)[O-].[Na+]` [sodium butyrate], for which, in data set [5], the “acetylation of nuclear histone in neural tissues” value is “increased acetylation of nuclear histone in neural tissues” and the neurological phenotypes entry was “successfully ameliorated neurological phenotypes”.
